Here are results for four compounds from PMC10193574 (ACS Omega, 2023).

One assay has as its system MRSA (ATCC43300). The experiment in a line: Antibacterial MIC, broth growth inhibition OD600. The assay is classed as cell-based, Staphylococcus aureus. Conditions: MIC = ≥80% growth inhibition.
In another assay the test system is E. coli (ATCC25922). As to the kind of experiment: Antibacterial MIC, broth growth inhibition OD600. The assay is classed as cell-based, Escherichia coli. Conditions: for MIC: Escherichia coli, ATCC25922, read-out: MIC Ec.
The test system of assay [1] is P. aeruginosa (ATCC27853). The experiment in a line: Antibacterial MIC, broth growth inhibition OD600. In kind it is cell-based, Pseudomonas aeruginosa.
In a further assay the test system is A. baumannii (ATCC19606). As to the kind of experiment: Antibacterial MIC, broth growth inhibition OD600. In kind it is cell-based, Acinetobacter baumannii.
The test system of a further assay is C. albicans (ATCC90028). As to the kind of experiment: Antifungal MIC, growth inhibition. The assay is classed as cell-based. Conditions: Candida albicans.
Assay [2] has as its system C. neoformans (ATCC 208821). As to the kind of experiment: Antifungal MIC, growth inhibition. In kind it is cell-based. Conditions: Cryptococcus neoformans, ATCC208821, read-out: MIC Cn.
Assay [3] relates to E. coli, K. pneumoniae, P. aeruginosa, A. baumannii, MRSA, C. albicans, C. neoformans. As to the kind of experiment: Antibacterial and antifungal MIC panel. In kind it is cell-based.
Setting [4] is: ATCC90028, read-out: MIC Ca, MIC = ≥80% growth inhibition.

Usually MIC stands for the lowest concentration found to suppress growth.

Converted amounts (≈) assume the structure as drawn. Where two headings read alike, the source gives them in different places.

For `COc1cc2c(=O)c(C(=O)NCCNCCO)cn(Cc3ccccc3)c2cc1OCc1cccc(F)c1` [Compound 42, 1-Benzyl-7-[(3-fluorobenzyl)oxy]-N-{2-[(2-hydroxyethyl)amino]ethyl}-6-methoxy-4-oxo-1,4-dihydroquinoline-3-carboxamide], in the assay on MRSA (ATCC43300), the “MIC MRSa” value was above 32 µg/mL. Further, the MIC is below 0.25 µg/mL with E. coli (ATCC25922); below 0.25 µg/mL in assay [1] (Pseudomonas aeruginosa, ATCC27853, read-out: MIC Pa); below 0.25 µg/mL in the assay with A. baumannii (ATCC19606) (Acinetobacter baumannii, ATCC19606, read-out: MIC Ab); above 32 µg/mL in the assay with C. albicans (ATCC90028) (ATCC90028, read-out: MIC Ca); below 0.25 µg/mL in assay [2].

Take `OC(Cn1cncn1)(Cn1cncn1)c1ccc(F)cc1F` [fluconazole, reference compound]: the MIC with C. albicans (ATCC90028) (setting [4]) came out at 0.125 µg/mL (≈ 0.408 µM).

In the case of colistin [reference compound], in the assay on E. coli (ATCC25922) (MIC = ≥80% growth inhibition), the “MIC Ec” value worked out at 0.12 µg/mL. In addition, the “MIC Pa” value in assay [1] (MIC = ≥80% growth inhibition) is 0.25 µg/mL. For the same compound, the “MIC Ab” value in the assay with A. baumannii (ATCC19606) (MIC = ≥80% growth inhibition) came out at 0.25 µg/mL. For the same compound, in assay [3], the “MIC against Gram-negative bacteria (summary)” value fell in the range of 0.1 to 0.25 µg/mL.

Turning to `CCn1cc(C(=O)NCCNCCO)c(=O)c2cc(OC)c(OCc3cc(F)cc(F)c3)cc21` [Compound 43, 7-[(3,5-Difluorobenzyl)oxy]-1-ethyl-N-{2-[(2-hydroxyethyl)amino]ethyl}-6-methoxy-4-oxo-1,4-dihydroquinoline-3-carboxamide], in the assay on MRSA (ATCC43300), the “MIC MRSa” value is above 32 µg/mL. Also, the MIC was below 0.25 µg/mL in the assay on E. coli (ATCC25922) and above 32 µg/mL in the assay with C. albicans (ATCC90028) (setting [4]).
